Like-named read-outs stand apart in the source and are kept apart here.
What was measured:
[1] = test system: PC-3 cells; assay: Cell Proliferation Assay (Cell Titer Glo), PC-3 cell line; type: cell-based; settings: Homo sapiens
In short: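 PC-3 cells, 1000 cells/well, left to adhere 3-5 h, then exposed for 3 days at 37° C to compounds as 1:3 serial dilutions from 500× DMSO stocks diluted in growth medium. Medium then replaced with fresh medium and viability read by Cell Titer Glo luminescence.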

[2] = molecular target: T1, PDK1 kinase (Homo sapiens, UniProt O15530); assay: PDK1 Kinase Alpha Screen Assay; type: biochemical; settings: read-out: PDK1 IC50
T1 sequence (O15530 1-556): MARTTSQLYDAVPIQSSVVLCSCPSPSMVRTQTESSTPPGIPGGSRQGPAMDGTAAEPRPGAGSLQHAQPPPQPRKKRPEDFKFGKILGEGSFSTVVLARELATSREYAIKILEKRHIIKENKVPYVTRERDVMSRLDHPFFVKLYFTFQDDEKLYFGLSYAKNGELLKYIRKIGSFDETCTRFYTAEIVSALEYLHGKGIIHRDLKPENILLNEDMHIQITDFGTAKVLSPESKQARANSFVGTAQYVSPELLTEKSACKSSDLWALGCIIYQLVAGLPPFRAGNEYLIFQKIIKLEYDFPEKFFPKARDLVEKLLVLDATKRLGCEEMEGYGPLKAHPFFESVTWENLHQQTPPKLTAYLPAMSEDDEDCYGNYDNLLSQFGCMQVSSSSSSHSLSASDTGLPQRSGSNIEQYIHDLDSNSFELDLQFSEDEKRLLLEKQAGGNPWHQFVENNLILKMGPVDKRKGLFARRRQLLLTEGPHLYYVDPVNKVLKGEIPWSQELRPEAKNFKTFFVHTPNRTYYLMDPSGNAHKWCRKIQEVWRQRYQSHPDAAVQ
In short: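 Compound in DMSO added to PDK1-4 peptide; PDK1/ATP mix starts reaction (final 50 nM peptide, 10 uM ATP). Runs 3-18 hours, stopped with 90 mM EDTA buffer. Antibody/bead mix added, developed overnight at room temperature, then AlphaScreen signal read.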

[3] = PC-3, Cell Proliferation Assay, PC3, read-out: CPEC50 PC3
[4] = PC-3, PC3 cells, read-out: CPEC50 PC3

SMILES | EC50 [1, 3] [µM] | IC50 ([2]; PDK1 Kinase Alpha Screen Assay) [µM] | other results
CC(C)NS(=O)(=O)c1ccc(Nc2ncc3c(Cl)ccc(OC4CNC4)c3n2)cc1 [Compound 615, 4-(8-(azetidin-3-yloxy)-5-chloroquinazolin-2-ylamino)-N-isopropylbenzenesulfonamide] | < 5 | < 5 | –
CN(C)[C@@H]1CCN(Cc2cccc3cnc(Nc4ccc(S(N)(=O)=O)cc4)nc23)C1 [Compound 938, (R)-4-(8-((3-(dimethylamino)pyrrolidin-1-yl)methyl)quinazolin-2-ylamino)benzenesulfonamide] | – | – | EC50 [1, 4]: 5 to 10 µM; IC50 [2]: < 5 µM
NS(=O)(=O)c1ccc(Nc2ncc3ccc(NC4CCNCC4)cc3n2)cc1 [Compound 361, 4-(7-(piperidin-4-ylamino)quinazolin-2-ylamino)benzenesulfonamide] | 5 to 10 | < 5 | –
c1cc(OC2CCNCC2)c2nc(Nc3ccc(-c4cnco4)cc3)ncc2c1 [Compound 458, N-(4-(oxazol-5-yl)phenyl)-8-(piperidin-4-yloxy)quinazolin-2-amine] | < 5 | < 5 | –
CC(C)N1CCC(Oc2ccc3cnc(Nc4cccc(C(F)(F)F)c4)nc3c2)CC1 [Compound 575, 7-(1-isopropylpiperidin-4-yloxy)-N-(3-(trifluoromethyl)phenyl)quinazolin-2-amine] | < 5 | < 5 | –
C#Cc1cc(OC2CNC2)c2nc(Nc3ccc(N4CCOCC4)cc3)ncc2c1 [Compound 707, 8-(azetidin-3-yloxy)-6-ethynyl-N-(4-morpholinophenyl)quinazolin-2-amine] | – | < 5 | EC50 ([1]; PC-3, Cell Proliferation Assay, PC3 cells, read-out: CPEC50 PC3): < 5 µM
Fc1cc(Nc2ncc3ccc(OC4CCNCC4)cc3n2)ccc1N1CCOCC1 [Compound 593, N-(3-fluoro-4-morpholinophenyl)-7-(piperidin-4-yloxy)quinazolin-2-amine] | < 5 | < 5 | –
CC(C)NC(=O)c1ccc(Nc2ncc3cc(C#N)c(OC4CCN(C(C)C)CC4)cc3n2)cc1 [Compound 639] | < 5 | < 5 | –
CC(C)N1CCC(Oc2ccc3cnc(Nc4cccc(N5CCCC5)c4)nc3c2)CC1 [Compound 579, 7-(1-isopropylpiperidin-4-yloxy)-N-(3-(pyrrolidin-1-yl)phenyl)quinazolin-2-amine] | 5 to 10 | < 5 | –
CN1CCC(NCc2cccc3cnc(Nc4ccc(S(N)(=O)=O)cc4)nc23)CC1 [Compound 937, 4-(8-((1-methylpiperidin-4-ylamino)methyl)quinazolin-2-ylamino)benzenesulfonamide] | – | – | EC50 [1, 4]: 5 to 10 µM; IC50 [2]: < 5 µM
Cc1ccc(OC2CCNCC2)c2nc(Nc3ccc(N4CCOCC4)c(F)c3)ncc12 [Compound 366, N-(3-fluoro-4-morpholinophenyl)-5-methyl-8-(piperidin-4-yloxy)quinazolin-2-amine] | 5 to 10 | < 5 | –
Fc1cccc(Nc2ncc3ccc(OC4CCNCC4)cc3n2)c1 [Compound 567, N-(3-fluorophenyl)-7-(piperidin-4-yloxy)quinazolin-2-amine] | < 5 | < 5 | –
CNC(=O)Cc1cccc(NC(=O)Cc2cccc(Nc3ncc4cccc(OC5CCN(C(C)C)CC5)c4n3)c2)c1 [Compound 78, 2-{3-[8-(1-Isopropyl-piperidin-4-yloxy)-quinazolin-2-ylamino]-phenyl}-N-(3-methylcarbamoylmethyl-phenyl)-acetamide] | – | – | EC50 ([1]; PC-3, 72 h, PC-3 cells, 3 days incubation, read-out: CP EC50 PC3): < 5 µM; IC50 [2]: < 5 µM
Cc1nc(Nc2ccc(S(N)(=O)=O)cc2)nc2cc(OCCC3CCNCC3)ccc12 [Compound 583] | 5 to 10 | 10 to 25 | –
CCN(CC)CCNc1ccc(-c2cccc3cnc(Nc4ccc(S(N)(=O)=O)cc4)nc23)cn1 [Compound 954, 4-(8-(6-(2-(diethylamino)ethylamino)pyridin-3-yl)quinazolin-2-ylamino)benzenesulfonamide] | – | – | EC50 [1, 4]: < 5 µM; IC50 [2]: < 5 µM
COCCn1cc(-c2ccc3cnc(Nc4ccc(C(=O)N5CCOCC5)cc4)nc3c2)cn1 [Compound 349, (4-(7-(1-(2-methoxyethyl)-1H-pyrazol-4-yl)quinazolin-2-ylamino)phenyl)(morpholino)methanone] | < 5 | < 5 | –
Clc1ccc(OC2CCNCC2)c2nc(Nc3ccc(N4CCOCC4)cc3)ncc12 [Compound 605, 5-chloro-N-(4-morpholinophenyl)-8-(piperidin-4-yloxy)quinazolin-2-amine] | 5 to 10 | < 5 | –

SMILES | EC50 [1, 3] [µM] | IC50 ([2]; PDK1 Kinase Alpha Screen Assay) [µM] | other results
COc1cc(Nc2ncc3cccc(OC4CCN(C(C)C)CC4)c3n2)cc(OC)c1 [Compound 526, N-(3,5-dimethoxyphenyl)-8-(1-isopropylpiperidin-4-yloxy)quinazolin-2-amine] | 5 to 10 | < 5 | –
O=C(NC1CCOCC1)c1cc(Nc2ncc3cccc(OC4CCNCC4)c3n2)ccc1F [Compound 476, 2-fluoro-5-(8-(piperidin-4-yloxy)quinazolin-2-ylamino)-N-(tetrahydro-2H-pyran-4-yl)benzamide] | < 5 | < 5 | –
Cc1ccc(OC2CCNCC2)c2nc(Nc3ccc(S(N)(=O)=O)cc3)ncc12 [Compound 464, 4-(5-methyl-8-(piperidin-4-yloxy)quinazolin-2-ylamino)benzenesulfonamide] | 5 to 10 | < 5 | –
CC(C)N1CCC(Oc2cccc3cnc(N4CCN(c5ccc(N)cc5)CC4)nc23)CC1 [Compound 552, 4-(4-(8-(1-isopropylpiperidin-4-yloxy)quinazolin-2-yl)piperazin-1-yl)aniline] | 5 to 10 | 10 to 25 | –
COCCNC(=O)c1ccc(Nc2ncc3cccc(OC4CCNCC4)c3n2)cc1 [Compound 492] | < 5 | < 5 | –
Fc1ccc(Nc2ncc3c(Br)ccc(OC4CCNCC4)c3n2)cc1 [Compound 434, 5-bromo-N-(4-fluorophenyl)-8-(piperidin-4-yloxy)quinazolin-2-amine] | < 5 | < 5 | –
COc1ccc(Nc2ncc3cccc(OC4CCN(C(C)C)CC4)c3n2)cc1 [Compound 535, 8-(1-isopropylpiperidin-4-yloxy)-N-(4-methoxyphenyl)quinazolin-2-amine] | 5 to 10 | < 5 | –
Fc1cc(Nc2ncc3ccc(OC4CCNCC4)cc3n2)ccc1Br [Compound 596, N-(4-bromo-3-fluorophenyl)-7-(piperidin-4-yloxy)quinazolin-2-amine] | < 5 | < 5 | –
CC(C)NS(=O)(=O)c1ccc(Nc2ncc3ccc(NC4CCN(C)CC4)cc3n2)cc1 [Compound 350, N-isopropyl-4-(7-(1-methylpiperidin-4-ylamino)quinazolin-2-ylamino)benzenesulfonamide] | < 5 | < 5 | –
Fc1cc(Nc2ncc3cccc(-c4ccc(NCCN5CCCC5)nc4)c3n2)ccc1N1CCOCC1 [Compound 431, N-(3-fluoro-4-morpholinophenyl)-8-(6-(2-(pyrrolidin-1-yl)ethylamino)pyridine-3-yl)quinazolin-2-amine] | < 5 | < 5 | –
CC(C)NC(=O)c1ccc(Nc2ncc3c(Cl)ccc(OC4CCNCC4)c3n2)cc1F [Compound 379, 4-(5-chloro-8-(piperidin-4-yloxy)quinazolin-2-ylamino)-2-fluoro-N-isopropylbenzamide] | < 5 | < 5 | –
CN(C)C(=O)c1cc(Nc2ncc3cccc(OC4CCNCC4)c3n2)ccc1N1CCOCC1 [Compound 455, N,N-dimethyl-2-morpholino-5-(8-(piperidin-4-yloxy)quinazolin-2-ylamino)benzamide] | 5 to 10 | < 5 | –
c1cc(-c2ccc(NCCN3CCCC3)nc2)c2nc(Nc3ccc4[nH]cnc4c3)ncc2c1 [Compound 393, N-(1H-benzo[d]imidazol-5-yl)-8-(6-(2-(pyrrolidin-1-yl)ethylamino)pyridin-3-yl)quinazolin-2-amine] | < 5 | < 5 | –
O=C(NC1CC1)c1ccc(Nc2ncc3c(Br)ccc(OC4CCNCC4)c3n2)cc1 [Compound 341, 4-(5-bromo-8-(piperidin-4-yloxy)quinazolin-2-ylamino)-N-cyclopropylbenzamide] | 5 to 10 | < 5 | –
O=C(O)c1ccc(Nc2ncc3cccc(OC4CCNCC4)c3n2)cc1Cl [Compound 481, 2-chloro-4-(8-(piperidin-4-yloxy)quinazolin-2-ylamino)benzoic acid] | 5 to 10 | < 5 | –
CN(C)C1CCN(C(=O)c2cncc(-c3cccc4cnc(Nc5ccc(S(N)(=O)=O)cc5)nc34)c2)CC1 [Compound 980, 4-(8-(5-(4-(dimethylamino)piperidine-1-carbonyl)pyridin-3-yl)quinazolin-2-ylamino)benzenesulfonamide] | – | – | EC50 [1, 4]: 5 to 10 µM; IC50 [2]: < 5 µM

From US7932262B2 (Novartis AG, priority 2006, dated 2011)
